Source: PubChem BioAssay (NCI)
Several values for one entry are separate records, joined by “and”; a condition that tells them apart may be missing. Equal values may be shown once.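 Values below derive from 48-hour exposures of cells grown in 96-well plates, with endpoints linearly interpolated between the two concentrations bracketing the appropriate inhibition level. GI50 marks 50% less growth. The concentration for full growth arrest is given as TGI.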

Tests used:
Assay in all cases: NCI tumour cell line growth inhibition, 48 h
SK-MEL-28 melanoma = test system: SK-MEL-28 melanoma
TK-10 renal = test system: TK-10 renal
KM12 colon = test system: KM12 colon
COLO 205 colon = test system: COLO 205 colon
NCI-H226 lung = test system: NCI-H226 lung
OVCAR-4 ovarian = test system: OVCAR-4 ovarian
NCI-H522 lung = test system: NCI-H522 lung
T-47D breast = test system: T-47D breast
DU-145 prostate = test system: DU-145 prostate
HS 578T breast = test system: HS 578T breast

SMILES	TGI (SK-MEL-28 melanoma) [µM]	TGI (TK-10 renal) [µM]	TGI (KM12 colon) [µM]	TGI (COLO 205 colon) [µM]	TGI (NCI-H226 lung) [µM]	TGI (OVCAR-4 ovarian) [µM]	TGI (NCI-H522 lung)	TGI (T-47D breast) [µM]	TGI (DU-145 prostate) [µM]	GI50 (SK-MEL-28 melanoma) [µM]	GI50 (T-47D breast) [µM]	GI50 (DU-145 prostate) [µM]	GI50 (TK-10 renal) [µM]	GI50 (KM12 colon) [µM]	GI50 (COLO 205 colon) [µM]	GI50 (HS 578T breast) [µM]	TGI (HS 578T breast) [µM]	GI50 (NCI-H226 lung) [µM]	GI50 (OVCAR-4 ovarian) [µM]	GI50 (NCI-H522 lung) [µM]
O=C(COC(=O)c1cccc2c(=O)c3ccccc3[nH]c12)Nc1ccc(Cl)cc1	> 100	46.5	> 100	> 100	> 100	> 100	> 100 µM													
C=C(C)C1CCC2=CC(CC3(C)OC3C3=CC(C(=O)OC)=C(C1)O3)OC2=O (stereo not given)	> 100	> 100	> 100		> 100		> 100 µM	> 100	> 100											
C[C@@]1(C(=O)O)CCC[C@]2(C)C1CC[C@]13C[C@@](O)(CO)[C@](O)(CC[C@]12O)C3 (stereo not given in full)	> 100	> 100	> 100	> 100	> 100	> 100	> 100 µM	> 100	> 100	> 100	> 100	> 100	> 100	> 100	> 100	> 100	> 100	> 100	> 100	> 100
CCOC(=O)/C(C#N)=C\Sc1ccccc1	42.8	> 100	> 100	38.4	43	> 100	11.3 µM													
CCCCSc1nc(N)c2cn[nH]c2n1	40.3	29.4	30.4	48.8	36.6	70.4	49.6 µM	52.6	72	20.3	8.28	23.9	7.99	15	19.8	22	63.2	15.6	23.6	20.7
COc1c(-c2ccc3c(c2)OCO3)oc2cc(O)cc(O)c2c1=O	> 100	> 100	> 100	> 100	> 100	95	83.8 µM	64.7	> 100								53.3			
Cc1ccc(C)c(NC(=O)C(=O)C2C(=O)N(c3ccccc3)N=C2N)c1 (stereo not given)	> 100	> 100	> 100		> 100	> 100	> 100 µM													
O=C1C(Cl)=C(Cl)C(=O)N1c1ccc(F)cc1	37.1	35.1	50.2	35.1	> 77.7	23.8	5.95 µM	51.2	> 100								55.4			
COc1cc(C2c3cc4c(cc3[C@@H](Nc3ccc([N+](=O)[O-])cc3)C3COC(=O)[C@H]23)OCO4)cc(OC)c1O (stereo not given in full)	34.8	6.97	6.42	10.1	3.1	62.4	5.42 µM		37.9											0.733
CN(CCCN1C(=O)c2cccc3cc([N+](=O)[O-])cc(c23)C1=O)CCN(C)CCCN1C(=O)c2cccc3cc([N+](=O)[O-])cc(c23)C1=O	> 39.3	> 39.3	> 39.3	> 39.3	> 39.3	> 39.3	> 39.3 µM													
C[C@]12CC(C=O)C(=O)C(O)=C1CC[C@@H]1C2CC[C@@]2(C)C1CC[C@]2(C)O (stereo not given in full)	68.1	99.5	74.6	38.3	39.5	34.8														
Cc1cc(Cl)ccc1N=C1NC(=O)C(CC(=O)Nc2cccc(C)c2C)S1 (stereo not given)	> 100	> 100	> 100	46.2		69.2														
O=C1NC2(CCCCC2)C2CCCCC=C12 (stereo not given)	> 100	> 100	> 100	> 100		> 100	> 100 µM													
O=C(O)/C(Cl)=C(Cl)/C=N/NC(=O)c1cc2ccccc2cc1O	> 100	> 100	> 100	> 100	87.2	72	77 µM													
COC(=O)c1ccc(C(=O)OC)c2nc3cc(Cl)ccc3nc12	> 100	> 100	> 100	> 100	> 100	> 100	> 100 µM													
CCC[CH2][Sn]([CH2]CCC)([O]C(=O)c1cc(F)ccc1F)[O]C(=O)c1cc(F)ccc1F	2.32	3.01	3.28	2.32	2.92	2.95	0.23 µM			1.09			1.64	1.6	1.12			1.56	1.58	0.108
N#CC(C(=N/O)/C(=N\O)C(C#N)c1ccccc1)c1ccccc1 (stereo not given)	> 100	> 100	> 100	> 100	> 100	> 100	> 100 µM													
O=[N+]([O-])c1cccc(S(=O)(=O)N/N=C/c2cc(I)cc([N+](=O)[O-])c2O)c1	87.9	95.2	> 100	31.7		> 100	35.9 µM													
Nn1c(-c2cccc(Cl)c2)nc2ccccc2c1=O	> 100	> 100	> 100	> 100	> 100	> 100	> 100 µM													
COc1ccc(/C=C\c2cc(OC)c(OC)c(OC)c2)cc1OC(=O)CC(N)C(=O)O (stereo not given)	> 100	> 100		21	0.107	> 100	0.00157 µM and 0.00192 µM		0.0187	0.000728			36.9	0.000979	4.11	0.00262	0.00314		9.51	0.000424

SMILES	TGI (SK-MEL-28 melanoma) [µM]	TGI (TK-10 renal) [µM]	TGI (KM12 colon) [µM]	TGI (COLO 205 colon) [µM]	TGI (NCI-H226 lung) [µM]	TGI (OVCAR-4 ovarian) [µM]	TGI (NCI-H522 lung)	TGI (T-47D breast) [µM]	TGI (DU-145 prostate) [µM]	GI50 (SK-MEL-28 melanoma) [µM]	GI50 (T-47D breast) [µM]	GI50 (DU-145 prostate) [µM]	GI50 (TK-10 renal) [µM]	GI50 (KM12 colon) [µM]	GI50 (COLO 205 colon) [µM]	GI50 (HS 578T breast) [µM]	TGI (HS 578T breast) [µM]	GI50 (NCI-H226 lung) [µM]	GI50 (OVCAR-4 ovarian) [µM]	GI50 (NCI-H522 lung) [µM]
C[C@]12Cc3conc3C(O)=C1CC[C@@H]1C2CC[C@@]2(C)C1CC[C@]2(C)O (stereo not given in full)	83	71.9	64.9	52.1	47.3	44.4														
CN(C)CC1C(=O)O[C@H]2[C@H]1CC/C(COC(=O)NCc1ccc(Cn3c(=O)sn(CCCI)c3=O)cc1)=C\CC[C@@]1(C)O[C@@H]21 (stereo not given in full)	1.82	1.64	15.7	1.66	17.6	1.77	1.68 µM		2.16	0.92		1.07	0.862	7.71	0.833	5.75	17.7	7.32	0.843	0.742
CN(C)C(=S)/N=c1\ssc(=S)n1Cc1ccco1	> 100	> 100	> 100	> 100	> 100	66.8	2.07 µM	> 100												
CCCS(=O)c1nc(COC(=O)NC)c(COC(=O)NC)n1C (stereo not given)	> 100		> 100	> 100	> 100	> 100	> 100 µM													
C(=C\c1ccncc1)/c1ccncc1	> 100	> 100	> 100	> 100	> 100	> 100		> 100	> 100	> 100	> 100	> 100	> 100	> 100	> 100			> 100	> 100	
Cc1cc(-c2nc3n(c2/C=N/N=C(N)N)CCS3)c(C)s1	29.4	> 100	21.2		37.9	> 100		32.5	34.7	15.1	17.6	18.2	33.6	6.7				18.7	36.2	
COC(=O)C12C34C=CC5(CCC6(C=CC1(CC3)O6)C52C(=O)OC)O4 (stereo not given)	> 100	> 100	> 100	> 100	> 100	> 100	> 100 µM													
CC(=O)[CH-]C(=O)c1ccccc1.CC(=O)[CH-]C(=O)c1ccccc1.CC[C@H](/C=C/C(C)[C@H]1CCC2[C@@H]3CC=C4C[C@@H]([O-])CC[C@]4(C)C3CC[C@@]21C)C(C)C.CC[C@H](/C=C/C(C)[C@H]1CCC2[C@@H]3CC=C4C[C@@H]([O-])CC[C@]4(C)C3CC[C@@]21C)C(C)C.Cl.[Ti+4] (stereo not given in full)	> 25	> 25	> 25	> 25	> 25	> 25	> 25 µM			6.08			> 25	> 25	> 25			> 25	> 25	> 25
O=C1CC(Cc2n[nH]c3c2CCCC3)CC(=O)N1	> 100	> 100	> 100	> 100	> 100	> 100		> 100	> 100											
COc1ccc(/C=C2\COc3ccc(O)c(O)c3C2=O)cc1OC	3.69	27.6		6.18	48.1	13.3	0.473 µM	9.6	11.4	1.8	1.54	2.22	2.66		2.17	2.23	8.29	3.91	1.61	0.199
COC(=O)C(=O)C(C(C)=O)C(=O)NCc1ccccc1 (stereo not given)	> 100	> 100	> 100	> 100	> 100	> 100	> 100 µM													
COc1cc2c3cc1Oc1c(OC)c(OC)cc4c1[C@@H](Cc1ccc(O)c(c1)Oc1ccc(cc1)C[C@@H]3N(C)CC2)N(C)CC4	29.5	35.4	27.7		44.8		20.3 µM													
O=C1C(Cl)=C(Cl)C(=O)N1c1cccc(C(F)(F)F)c1	> 100	> 100	> 100	> 100	> 100	> 100	26.4 µM													
CC(C)N1C(C)[C@@H](c2ccccc2)O[P@@]1(=O)CC1=CCCCC1 (stereo not given in full)	> 100	> 100	> 100	> 100	> 100		> 100 µM													
COc1cccc2c(SCC(=O)Nc3ccccc3-c3ccccc3NC(=O)CSc3c4ccccc4nc4c(OC)cccc34)c3ccccc3nc12	> 100	> 100	> 100	> 100	> 100	> 100														
COc1cc2c3c(n([C@@H]4CCOC4)c(=O)c2cc1OC)-c1cc2c(cc1C3=O)OCO2		> 100		> 100			> 100 µM		> 100			< 0.01	> 100		0.0193	> 100	> 100			< 0.01
CCCCCN(CCCCC)C(=O)[C@H](CCC(=O)O)NC(=O)c1cc2ccccc2[nH]1	96.4	> 100	> 100	> 100	> 100	> 100	67.7 µM													
CCOC(=O)C(=O)Nc1c(C)cccc1C(C)(C)C	> 100	> 100	> 100	> 100	> 100	> 100	> 100 µM													
CCn1cc(C(=O)N/N=C/c2cccs2)c(=O)c2cc(F)c(N3CCNC(C)C3)c(F)c21 (stereo not given)		3.25	3.27	3.52		3.97		3.45	3.03		1.68	1.67	1.72	1.73	1.78	14.1	35.9		1.96	
COC(=O)c1ccc(NC(=O)c2ccc(NC3=C(Cl)C(=O)N(Cc4ccccc4)C3=O)cc2)cc1	47.3		> 100	> 100	40.6	60.9	33.1 µM	> 100	31.2	23.6	74.1	17.4		25.7	37	35.9	> 100	22	27	13.1
